Source: ChEMBL document CHEMBL1128762, “The design of polar -turn dipeptide mimetics” (Bioorg Med Chem Lett, 1995)
Positions of bridges follow the written chain, without caps; N, C: chain ends. Non-standard residues stand in square brackets, D forms with d. Residues, ends and D or L forms follow the SMILES beside them. *: point of attachment. Cbz = O=C(OCc1ccccc1)*; Dap = NC[C@H](N)C(=O)O

biological target: T1, Neuromedin-K receptor (Homo sapiens, UniProt P29371); test: Binding affinity towards Tachykinin receptor 3 using [125I]-[Mephe7] NKB as radioligand
T1 sequence (P29371 whole entry): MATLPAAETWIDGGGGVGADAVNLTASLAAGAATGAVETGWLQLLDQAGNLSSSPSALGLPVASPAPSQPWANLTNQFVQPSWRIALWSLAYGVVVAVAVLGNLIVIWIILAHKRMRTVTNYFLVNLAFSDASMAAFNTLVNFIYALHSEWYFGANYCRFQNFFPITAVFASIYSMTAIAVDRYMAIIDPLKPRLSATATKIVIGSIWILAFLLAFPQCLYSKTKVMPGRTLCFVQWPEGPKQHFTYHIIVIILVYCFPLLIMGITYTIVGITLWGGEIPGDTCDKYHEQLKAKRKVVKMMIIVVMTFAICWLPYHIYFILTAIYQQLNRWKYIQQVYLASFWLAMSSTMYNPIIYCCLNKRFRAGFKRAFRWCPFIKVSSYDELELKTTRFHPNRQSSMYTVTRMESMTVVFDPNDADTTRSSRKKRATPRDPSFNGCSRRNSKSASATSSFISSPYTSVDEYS

Row | Molecule | IC50
1 | NC(=O)[C@H](Cc1ccccc1)NC(=O)[C@H](Cc1c[nH]c2ccccc12)NC(=O)OCc1ccccc1 (Cbz-Trp-Phe-NH2) | 9.3 µM
2 | O=C(Cc1ccccc1)N1CCC(Cc2ccccc2)C1 (stereo unspecified) | 9.4 µM

biological target: T2, Substance-K receptor (Mesocricetus auratus, UniProt P51144); test: Binding affinity towards Tachykinin receptor 2 using [125I]iodohistidyl-NKA (0.1 nM)) as radioligand; set-up: species or system Cricetulus griseus
T2 sequence (P51144 whole entry): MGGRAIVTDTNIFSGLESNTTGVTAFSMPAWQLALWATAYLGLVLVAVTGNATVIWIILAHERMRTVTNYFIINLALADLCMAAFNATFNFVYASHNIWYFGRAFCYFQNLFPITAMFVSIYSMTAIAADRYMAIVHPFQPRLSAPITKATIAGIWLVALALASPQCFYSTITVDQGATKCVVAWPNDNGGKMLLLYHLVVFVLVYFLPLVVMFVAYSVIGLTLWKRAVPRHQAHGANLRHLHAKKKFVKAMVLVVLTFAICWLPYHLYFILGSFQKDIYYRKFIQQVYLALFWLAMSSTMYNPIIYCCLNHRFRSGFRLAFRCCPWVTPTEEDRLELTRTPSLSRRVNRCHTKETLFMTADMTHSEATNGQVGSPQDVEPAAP

Row | Molecule | IC50
3 | NC(=O)[C@H](Cc1ccccc1)NC(=O)[C@H](Cc1c[nH]c2ccccc12)NC(=O)OCc1ccccc1 (Cbz-Trp-Phe-NH2) | 5.2 µM
4 | O=C(Cc1c[nH]c2ccccc12)N1CCC(Cc2ccccc2)C1 (stereo unspecified) | > 10 µM
5 | Ac-LMQWFG-OH | 19.8 µM
6 | CSCC[C@@H]1NC(=O)[C@H](CC(C)C)NC(=O)[C@@H]2CNC(=O)C[C@H](NC1=O)C(=O)N[C@@H](Cc1c[nH]c3ccccc13)C(=O)N[C@@H](Cc1ccccc1)C(=O)N2 (cyclo(DWF[Dap]LM); lactam 1-4) | > 10 µM
